Results from patent US20180094248A1, “Necroptosis Signaling as a Therapeutic Target for Alzheimer's Disease” (Arizona Board of Regents on behalf of Arizona State …, priority 2016, published 2018).

Assays:
phosphorylated MLKL [1] = assay: Western blot of total and phosphorylated MLKL in primary neurons (NeuN experiment); format: cell-based, mouse
Experimental: To probe for a direct link between necroptosis and neuronal loss in AD, we plated primary cortical neurons from APP/PS1 and wild type littermate mice. After seven days in vitro (DIV), neurons were treated with 10 μM of the necroptosis inhibitor 7-Cl-O-necrostatin (Nec15) or vehicle. Treatment was repeated at DIV 11. We then fixed neurons at DIV 11 and 15, and stained them for NeuN to count total number of neurons. […] To determine changes in necroptosis, we isolated proteins from neurons of the same four groups and measured the levels of total and phosphorylated MLKL by western blot.
(§1) Western blot and ELISA: The proteins were run using reducing conditions in precast gels (Thermo Fisher Scientific) and transferred to nitrocellulose membranes (iBlot, Thermo Fisher Scientific). […] The blots were then washed with TBS-T, and imaged/quantified using a LICOR Odyssey CLx (LI-COR Biosciences) attached to a Dell computer (OptiPlex 7010) running Windows 7 and Image Studio (version 1.0.11, LI-COR Biosciences). […]
Primary neuronal cultures—For the GFP experiments: Primary neurons were isolated from APP/PS1 and NonTg Po pups. […] Neurons were treated for a total of 15 days and the GFP fluorescence was measured every 4 days. […] All fluorescent measurements (excitation 488 nm, emission 509 nm) were performed using the Synergy HT multi-mode microplate reader with the Gen5 software (BioTek, Winooski, Vt.). […]

phosphorylated MLKL [2] = assay: Western blot of total and phosphorylated MLKL in brains of Nec-1S treated 5xFAD mice; format: in vivo, mouse; details: 8-month-old 5xFAD mice; 10 mg/kg i.p. once, then 0.5 mg/ml in drinking water for 21 days; vs vehicle
Experimental: Specifically, mice receive a single intraperitoneal injection of 10 mg/kg Nec1s after which they were given Nec1S in their drinking water at a concentration of 0.5 mg/ml for 21 days.
Protein Extraction: Human temporal gyms tissue samples (0.1 g/sample) were extracted in sequential buffers, from lower to higher detergent strength. Briefly, the samples were homogenized in TBS (50 mM Tris-HCl, pH 7.4, 175 mM NaCl, 5 mM EDTA, 1 mM N-ethyl-maleimide) containing protease inhibitors (Roche) and phosphatase inhibitors (Millipore). The protein extract was centrifuged at 120,000 g for 30 minutes at 4° C. The resulting supernatant represented the TBS soluble fraction. Pellets were homogenized in TBS/1% Triton X-100 and spun at 1000 g for 10 minutes at 4° C. The supernatant represented the Triton soluble fraction. Pellets were washed in TBS/1M sucrose and then homogenized in RIPA buffer. […]
as §1

Question: For `CN1C(=O)NC(Cc2c[nH]c3c(Cl)cccc23)C1=O` (stereo not drawn) [Nec1S, 5-((7-chloro-1 H-indol-3-yl)methyl)-3-methylimidazolidine-2,4-dione], which pMLKL level (phosphorylated MLKL [1]; DIV 11, all four groups, NeuN experiment) is on record?
Answer: not detectable

Question: And the “ratio pMLKL/MLKL” value (phosphorylated MLKL [1]; DIV 15, 10 μM, APP/PS1-veh group vs the other three groups incl. APP/PS1-Nec1S)?
Answer: statistically different compared to the other three groups

Question: What about the pMLKL/MLKL ratio (phosphorylated MLKL [2]) of the same molecule?
Answer: lower pMLKL/MLKL ratio
